Laboratory results: patent US10829466B2, “Stilbene derivative and preparation method thereof” (BEIJING INSTITUTE OF TECHNOLOGY, priority 2015, dated 2020)
Entries after “also recorded” stand apart in the source; their conditions may differ.

Tests used:
[1] = tested on: neurogenesis in rat hippocampus; assay: Detection of neurogenesis in rat hippocampus by BrdU labeling (DAB immunohistochemistry); assay type: in vivo; details: for BrdU labeling result: SD male rats, intraperitoneal injection 28 days, 4 mg/Kg, compared with the control group; for neurogenesis activity (in words): under the test conditions of the embodiments, same dose; for activity of proliferation promotion (BrdU positive) at low dose: low dose 0.5 mg/Kg, compared with blank sample (V), FIG. 10
Text: Example 36: Detection of Neurogenesis in Rat Hippocampus by BrdU (5-Bromo-2-deoxy Uridine, 5-bromodeoxyuridine) Labeling
Experimental animals: 10-week-old SD male rats having a body weight of about 300 g are purchased. The rats are used in experiments one week after being adapted to the environment in an animal room. Experimental groups: control group, drug group. 2-3 rats per group. Experimental reagent: injection oil is used to dissolve a compound to be tested. Rates in the control group are injected with the same dose of dissolving oil.
Test method: intraperitoneal injection is carried out 28 days at the injection dose of 0.5 ml-1 ml each time. Dose: 4 mg/Kg.
1) marker injection: BrdU (dissolved in sterile saline solution at a concentration of 10 mg/mL) solution is injected intraperitoneally into rats. (For rats with different body weights, the injection dose of BrdU is 50 mg·Kg^−1, injection is carried out twice every 2 hour; the intraperitoneal injection 24 hours before anesthesia ends.
2) Anesthesia: Anesthesia is performed by intraperitoneal injection of sodium pentobarbital solution into rats. (For rats with different body weights, the injection dose of sodium pentobarbital is usually 70 mg·Kg^−1.)
3) Cardiac perfusion: cardiac perfusion with normal saline is performed according to a general method.
4) Taking of brain tissues: The heads of the rats are separated from the bodies with surgical forceps and scissors, and then the muscles and membrane tissues at the top of the skulls are removed and brains are then gently peeled from the skulls. The separated brains are soaked in 4% paraformaldehyde for 24-48 hours.
5) Dehydration of brain tissues: the fixed tissues are soaked with a 20% sucrose PBS solution for more than 72 hours, and then the brain tissues are soaked with a 30% sucrose PBS solution for more than 72 hours.
6) Frozen section: the brain tissues are cut into […] thick sections by a general coronal section procedure.
7) DAB immunohistochemistry step: DNA denaturation is carried out and the sections are transferred to a 24-well plate (pH 7.4) perfused with 0.1 M PBS. The brain sections are incubated with 1% H2O2 for 30 minutes to remove […]; the sections are then treated with a 2M HCl solution for 30 minutes at room temperature to denature them. After completion of the denaturation, the brain sections are immersed in a 0.1 M sodium borate (pH 8.5) solution for 5 minutes and rinsed twice; the brain sections are incubated in 0.5% PBST for 1 hour at room temperature, and then are blocked for 1 hour with a serum blocking solution on a shaker at room temperature, and the serum blocking solution is from the same source as a secondary antibody; the samples are treated on the shaker with a BrdU primary antibody overnight at 4° C., and the BrdU primary antibody is diluted with the blocking solution; the samples are incubated with the biotinylated secondary antibody IgG for 2 hours at room temperature; a C (ABC kit) solution is incubated at room temperature for 2 hours; finally, after 3 to 5 minutes of color development by the DAB kit, the samples are mounted by using a PVP mounting medium and then dried, and finally the experimental results are detected under a microscope.
The dose-effect relationships of different compounds is further tested according to the method of Example 36, and the compounds include WS-54 (E-4-isobutyrylamino-3′,4′-methylenedioxy-stilbene), WS-69 (E-4-Methylsulfonamino-3′,4′-methylenedioxy-stilbene), WS-70 (E-4-Benzamino-3′,4′-methylenedioxy-stilbene), and WS-74 (E-4-Cyclopropylformamino-3′,4′-methylenedioxy-stilbene).

[2] = tested on: HEK293; assay: In vitro cytotoxicity experiment (MTT, cell survival); assay type: cell-based; details: for cell survival rates: HEK293, 24 h, MTT, at all three doses, low, medium and high (100 μM; 500 μM; 1000 μM); for neuronal cytotoxicity / neurotoxicity (in words): HEK293, in vitro test, FIG. 3
Experimental: Example 35: In Vitro Cytotoxicity Experiment the Experimental Cell Line is HEK293
Cells are cultured in a 96-well plate at a cell concentration of 5000/well. After 24 hours of cell culture, the drug treatment is performed and the experiment is carried out on two groups: the control group is added with DMSO with the same concentration as that for the experimental group; in the experimental group, each compound is tested at three doses of low, medium and high doses (100 μM; 500 μM; 1000 μM), and five parallels are tested at each dose; in the blank group, a complete medium is added with a compound to be tested with the same concentration as that for the experimental group. Constant temperature incubation is carried out for 24 h in a CO2 incubator, MTT with a final concentration of 0.5 mg/mL is then added; 4 hours later, 200 μL of DMSO solution is added, and the absorbance is measured at 490 nm. The cell survival is calculated according to the absorbance; Survival %=(Average concentration−Blank concentration)/(Average control concentration−Blank concentration)*100%.
Reference is made to FIG. 3 which illustrates an in vitro cytotoxicity test chart of a novel stilbene derivative according to an example of embodiments of the present invention.

Molecule | BrdU labeling result [1] | neuronal cytotoxicity / neurotoxicity (in words) [2] | other results
O=S(=O)(Nc1ccc(/C=C/c2ccc3c(c2)OCO3)cc1)c1ccccc1 [LSS-12, E-4-benzenesulfonylamino-3′,4′-methylenedioxy-stilbene] | positive | – | –
O=S(=O)(Nc1ccc(/C=C/c2ccc3c(c2)OCO3)cc1)C1CC1 [LSS-13, E-4-cyclopropylsulfonylamino-3′,4′-methylenedioxy-stilbene] | positive | – | –
O=C(Cc1ccccc1)Nc1ccc(/C=C/c2ccc3c(c2)OCO3)cc1 [LSS-16, E-4-phenylacetylamino-3′,4′-methylenedioxy-stilbene] | positive | – | –
CN(C)S(=O)(=O)Nc1ccc(/C=C/c2ccc3c(c2)OCO3)cc1 [LSS-17, E-4-(N,N-dimethylamino-sulfonamino)-3′,4′-methylenedioxy-stilbene] | positive | – | –
O=C(Nc1ccc(/C=C/c2ccc3c(c2)OCO3)cc1)c1ccccn1 [LSS-20, E-4-(2-pyridinecarboxamino)-3′,4′-methylenedioxy-stilbene] | positive | – | –
Nc1ccc(/C=C/c2ccc3c(c2)OCO3)cc1 [WS-4, E-4-amino-3′,4′-methylenedioxy-stilbene, reference compound] | – | high neuronal cytotoxicity | cell survival rates [2]: less than 50%
CC(=O)Oc1ccc(/C=C/c2ccc3c(c2)OCO3)cc1 [WS-10, E-4′-acetoxy-3,4-methylenedioxy-stilbene, reference compound] | – | – | neurogenesis activity (in words) [1]: no neurogenesis activity
Oc1ccc(/C=C/c2ccc3c(c2)OCO3)cc1 [WS-11, E-4′-hydroxy-3,4-methylenedioxy-stilbene, reference compound] | – | – | neurogenesis activity (in words) [1]: no neurogenesis activity
CC(=O)Nc1ccc(/C=C/C(=O)c2ccc3c(c2)OCO3)cc1 [WS-37, 4-acetylamino-3′,4′-methylenedioxychalcone, reference compound] | – | higher neuronal cytotoxicity | cell survival rates [2]: less than 10%
COc1ccc(/C=C/c2ccc(NC(C)=O)cc2)cc1OC [WS-43, E-4′-acetylamino-3,4-dimethoxy-stilbene, reference compound] | – | – | neurogenesis activity (in words) [1]: no significant neurogenesis activity
CC(=O)Nc1cccc(/C=C/c2ccc3c(c2)OCO3)c1 [WS-49, E-3-acetylamino-3′,4′-methylenedioxy-stilbene, reference compound] | – | higher neuronal cytotoxicity | cell survival rates [2]: ≤ 20%
CC(C)C(=O)Nc1ccc(/C=C/c2ccc3c(c2)OCO3)cc1 [WS-54, E-4-isobutyrylamino-3′,4′-methylenedioxy-stilbene] | positive | low neurotoxicity | activity of proliferation promotion (BrdU positive) at low dose [1]: significant activities of proliferation promotion
COc1cc(/C=C/c2ccc(OC(C)=O)cc2)cc(OC)c1 [WS-56, E-4-acetoxy-3′,5′-dimethoxy-stilbene, reference compound] | – | – | activity of proliferation promotion (BrdU positive) at low dose [1]: no significant activity
COc1cc(/C=C/c2ccc(NC(C)=O)cc2)cc(OC)c1 [WS-61, E-4-acetylamino-3′,5′-dimethoxy-stilbene, reference compound] | – | reduce neurotoxicity | –
CS(=O)(=O)Nc1ccc(/C=C/c2ccc3c(c2)OCO3)cc1 [WS-69, E-4-methanesulfonylamino-3′,4′-methylenedioxy-stilbene] | positive | low neurotoxicity | activity of proliferation promotion (BrdU positive) at low dose [1]: significant activities of proliferation promotion
O=C(Nc1ccc(/C=C/c2ccc3c(c2)OCO3)cc1)c1ccccc1 [WS-70, E-4-benzoylamino-3′,4′-methylenedioxy-stilbene] | positive | low neurotoxicity; also recorded: greatly reduced | activity of proliferation promotion (BrdU positive) at low dose [1]: significant activities of proliferation promotion
CC(=O)Nc1ccc(/C=C/c2ccc3c(c2)OCO3)cc1F [WS-71, E-3,4-methylenedioxy-3′-fluoro-4′-acetylamino-stilbene] | positive | low neurotoxicity | –
O=C(Nc1ccc(/C=C/c2ccc3c(c2)OCO3)cc1)c1cccs1 [WS-73, E-4-(2-thienyl)formamino-3′,4′-methylenedioxy-stilbene] | positive | low neurotoxicity | –
O=C(Nc1ccc(/C=C/c2ccc3c(c2)OCO3)cc1)C1CC1 [WS-74, E-4-cyclopropylcarboxamino-3′,4′-methylenedioxy-stilbene] | positive | low neurotoxicity; also recorded: greatly reduced | activity of proliferation promotion (BrdU positive) at low dose [1]: significant activities of proliferation promotion
CC(=O)Nc1ccc(C#Cc2ccc3c(c2)OCO3)cc1 [WS-77, E-4′-acetamino-3,4-methylenedioxy-diphenylacetylene, reference compound] | positive | – | neurogenesis activity (in words) [1]: weak neurogenesis activity
CC(=O)N(C)c1ccc(/C=C/c2ccc3c(c2)OCO3)cc1 [WS-80, E-4′-(N-acetyl-N-methylamino)-3,4-methylenedioxy-stilbene, reference compound] | negative | – | neurogenesis activity (in words) [1]: no significant neurogenesis activity
O=C(Nc1ccc(/C=C/c2ccc3c(c2)OCO3)cc1)C1CCC1 [WS-83, E-4-cyclobutylformamino-3′,4′-methylenedioxy-stilbene] | positive | – | –
E-4′-acetamino-3,4-methylenedioxy-diphenylethane [WS-35, reference compound] | – | – | neurogenesis activity (in words) [1]: no neurogenesis activity
E-4′-tertamino-3,4-methylenedioxy-stilbene [WS-60, reference compound] | – | – | neurogenesis activity (in words) [1]: weak neurogenesis activity
